Laboratory results from patent US20230131339A1, “EPI-X4 BASED PEPTIDES AND DERIVATIVES THEREOF” (Universitaet Ulm, priority 2020, published 2023).

Experiments:
[1] = test system: CXCR4-tropic X4-HIV-1 (NL4-3); type: cell-based; details: compared to EPI-X4
Description: The activity of the peptides was estimated by different assays.
The X4-HIV inhibition assay is designed to measure the activity of the inventive peptides by their efficiency of blocking the infection of tissue culture cells by CXCR4-tropic HIV-1 variants.
HIV-1 inhibition assay. […] For infection of TZM-bl cells in presence of inhibitors, cells were seeded at a density of 1×10^5 cells/ml in 70 μl DMEM containing 2.5% FCS. Compounds were diluted in PBS and 10 μl were added. After 15 minutes of incubation cells were inoculated with 20 μl of diluted virus. Infection rates were determined three days later using Gal-Screen system (Applied Biosystems).

[2] = target: T1, CXCR4 12G5 epitope of AML cells (Homo sapiens, UniProt P61073); assay: Blocking of the CXCR4 12G5 epitope of AML cells; type: binding
T1 construct: endogenous in cells
Excerpt: (§1) Experimental data support the efficiency of the claimed peptide derivatives against the diseases mentioned above. At the example of JM #21 (SEQ ID NO.: 23) it could be shown that the peptides counteract growth and migration in vitro and in vivo of Acute Myeloid Leukemia (AML) cells as well as primary patient material and Waldenström's Macroglobulinemia (WM) cells harboring different WHIM-like CXCR4 mutations. This was accompanied by intrinsic changes suppressing oncogenic MAP kinase signaling of AML and WM cells.

[3] = test system: CXCL12-induced ERK phosphorylation of CXCR4 mutant WM cells; assay: CXCL12-induced ERK phosphorylation of CXCR4 mutant WM cells; type: cell-based
Excerpt: as §1

[4] = test system: CXCL12 induced migration of T-cells; assay: Migration assay (transwell, Jurkat cells); type: cell-based
[5] = Stability assay in human S9 liver fractions; details: 2 hours, with cofactors
Description: Further, the stability of peptides in human S9 liver fractions (in the presence of cofactors) was tested (FIG. 12). […] To simulate and predict hepatic metabolic clearance, peptides were added to human S9 liver fractions. […] For each peptide, three independent experiments were performed.
Stability assay in human S9 liver fractions. Pooled human liver S9 fractions were obtained from Thermo Fisher Scientific at a total protein concentration of 20 mg/ml. Fractions were stored in 25 μl aliquots at −80° C. For stability experiments, they were diluted to a final concentration of 0.5 mg/ml in Tris buffer. Cofactors (or buffer) were added immediately before start of the experiment (NADPH: 1 mM, UDPGA: 0.5 mM, GSH: 2.5 mM, PAPS: 0.05 mg/ml, Sigma Aldrich). The reaction was started by adding peptides or compounds at a concentration of 20 μM to the mixture and gentle agitation at 37° C. Determination of enzymatic stability was performed as described for plasma.

[6] = test system: primary CXCR4 AML patient samples; assay: Engraftment of primary AML patient samples in NSG mice; type: in vivo
Excerpt: as §1

[7] = test system: CXCR4 12G5 epitope of WM cells; assay: Blocking of the CXCR4 12G5 epitope of WM cells; type: binding; details: with or without CXCR4 mutations
Excerpt: as §1

[8] = test system: CXCL12-induced ERK signaling; assay: ERK/AKT signaling assay in SupT1 cells: ERK phosphorylation; type: cell-based; details: 1 μM
Summary of the method: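 SupT1 cells in 1% FCS medium preincubated 15 min at 37 °C with compound, then stimulated 2 min with CXCL12 (100 ng/ml final). PFA-fixed, methanol-permeabilized cells stained for phospho-ERK1/2 (Tyr204/Tyr187) or phospho-AKT (Ser473) and read by flow cytometry; two or three independent experiments in triplicate.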

[9] = test system: CXCL12-induced ERK phosphorylation of AML cells; assay: CXCL12-induced ERK phosphorylation of AML cells; type: cell-based
Excerpt: as §1

T1 sequence (P61073 whole entry): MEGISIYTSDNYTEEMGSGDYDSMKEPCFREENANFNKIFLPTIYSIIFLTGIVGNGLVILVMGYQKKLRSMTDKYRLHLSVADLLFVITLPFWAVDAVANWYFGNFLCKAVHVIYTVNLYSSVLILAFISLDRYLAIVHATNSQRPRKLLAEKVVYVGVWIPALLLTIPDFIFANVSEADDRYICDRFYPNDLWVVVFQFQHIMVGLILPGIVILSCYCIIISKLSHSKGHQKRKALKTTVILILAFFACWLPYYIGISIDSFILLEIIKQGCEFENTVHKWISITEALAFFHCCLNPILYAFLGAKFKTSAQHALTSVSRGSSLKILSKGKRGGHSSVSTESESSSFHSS

For CC[C@H](C)[C@H](N)C(=O)N[C@@H](CC(C)C)C(=O)N[C@@H](CCCNC(=N)N)C(=O)N[C@@H](Cc1c[nH]c2ccccc12)C(=O)N[C@@H](CO)C(=O)N[C@@H](CCCNC(=N)N)C(=O)N[C@@H](CCCCN)C(=O)N[C@@H](CC(C)C)C(=O)N1CCC[C@H]1C(=O)N[C@@H](CS)C(=O)N[C@H](C(=O)N[C@@H](CO)C(=O)O)C(C)C [JM #21], which “fold more effective inhibition of X4-HIV-1 than EPI-X4” value [1] is on record?
The value was ~100 fold.

And the “blocking of CXCR4 12G5 epitope of AML cells” value [2]?
Its value is “efficiently blocked the CXCR4 12G5 epitope of AML cells in a dose dependent manner”.

What about the “CXCL12-induced ERK phosphorylation of CXCR4 mutant WM cells” value [3] of the same compound?
The value was “reduced CXCL12-induced ERK phosphorylation of CXCR4 mutant WM cells in a dose-dependent manner”.

What about the “inhibition of CXCL12 induced migration of T-cells (in words)” value [4] of the same compound?
The value was “more effective than WSC02”.

What about the “remaining activity in human S9 liver fractions after 2 hours” value [5] of the same compound?
The value was “readily inactivated by liver enzymes”.

And the “engraftment potential of primary CXCR4 AML patient samples” value [6]?
Its value is “reduced engraftment potential of primary CXCR4 AML patient samples in NSG mice”.

And the “blocking of CXCR4 12G5 epitope of WM cells” value [7]?
The value was “blocked the CXCR4 12G5 epitope of WM cells in presence or absence of different CXCR4 mutations in a dose dependent manner”.

And the “reduction of CXCL12-induced ERK signaling” value [8]?
The value was 60%.

And the “CXCL12-induced ERK phosphorylation of AML cells” value [9]?
The value was “reduced CXCL12-induced ERK phosphorylation of AML cells”.
